Assay results reported in patent publication US20260226092A1, “COCRYSTALS OF CORTEXOLONE 17-PROPIONATE AND METHODS FOR THEIR PREPARATION” (Farmabios S.p.A., priority 2023, published 2026).
Values after ≈ are worked out from the molar mass of the structure shown. Like-named read-outs stand apart in the source and are kept apart here.

How the values were obtained:
[1] = Wettability analysis (contact angle, ultrapure water); format: physicochemical; details: room temperature
Method: Wettability analysis has been carried out by a contact angle meter (Kyowa Interface Science, made in Japan, model: DMe-211Plus) with FAMAS software for data processing.
The contact angle of cocrystals (Form J and G) and Form III (reference) was evaluated at room temperature using ultrapure water (by MilliQ system). Cocrystals (Form J and G) and Form III were previously grounded with a mortar and pestle to limit the effect of particle sizes. Then, approximately 27 mg of each sample were collected on a glass substrate limited to a Teflon O-ring (6.0 mm diameter) and gently leveled by a spatula. The contact time between the drop and sample was set at 9 s and the aqueous falling volume was 2.0 μl.

[2] = Kinetic solubility study in aqueous buffers (HPLC of mother liquors); format: physicochemical; details: for solubility at 30 min: aqueous buffer, thermodynamic from solid, read-out: highest solubility; for Conc 1st duplicate / Conc 2nd duplicate / Conc Average: room temperature
Method: Each sample was analyzed in duplicate. Cocrystals form J and G as well as the crystalline form III were previously grounded with mortar and pestle to reduce the particle size effects. […] At scheduled timing (0.5 h, 1 h, 3 h, 5 h, 24 h), aliquots of approximately 3 ml were withdrawn and filtered. Mother liquors were analyzed in triplicate by HPLC, and their pH values checked by pH me[…]/conductometer, Methron).

Wettability character (hydrophilic: contact angle <90 degrees; hydrophobic: >90 degrees) [1]: hydrophilic
Contact angle Sample 1 ([1]; 2.0 μl drop, contact time 9 s): 76.8 degrees
Contact angle Sample 2 ([1]; 2.0 μl drop, contact time 9 s): 75.0 degrees
Contact angle Sample 3 ([1]; 2.0 μl drop, contact time 9 s): 81.2 degrees
Contact angle Average ([1]; average of samples 1-3): 77.67 degrees
solubility at 30 min ([2]; acetate buffer, pH 5.1, room temperature, maximum over 0.5-24 h (Form J and G after 1 h, Form III after 30 min)): 18.07 ± 0.06 µg/mL (≈ 44.9 µM)
dissolution (in words) ([2]; pH 5.1, room temperature): faster than the one at pH 6.0
Conc 1st duplicate ([2]; pH 5.1 buffer, 30 min): 18070 ng/mL
Conc 2nd duplicate ([2]; pH 5.1 buffer, 30 min): 18120 ng/mL
Conc Average ([2]; pH 5.1 buffer, 30 min): 18070 ng/mL
Conc 1st duplicate ([2]; pH 5.1 buffer, 1 h): 10020 ng/mL
Conc 2nd duplicate ([2]; pH 5.1 buffer, 1 h): 10000 ng/mL
Conc Average ([2]; pH 5.1 buffer, 1 h): 10010 ng/mL
Conc 1st duplicate ([2]; pH 5.1 buffer, 3 h): 16960 ng/mL
Conc 2nd duplicate ([2]; pH 5.1 buffer, 3 h): 16820 ng/mL
Conc Average ([2]; pH 5.1 buffer, 3 h): 16890 ng/mL
Conc 1st duplicate ([2]; pH 5.1 buffer, 5 h): 14680 ng/mL
Conc 2nd duplicate ([2]; pH 5.1 buffer, 5 h): 15020 ng/mL
Conc Average ([2]; pH 5.1 buffer, 5 h): 14770 ng/mL
Conc 1st duplicate ([2]; pH 5.1 buffer, 24 h): 2590 ng/mL
Conc 2nd duplicate ([2]; pH 5.1 buffer, 24 h): 2600 ng/mL
Conc Average ([2]; pH 5.1 buffer, 24 h): 2600 ng/mL
Conc 1st duplicate ([2]; pH 6.0 buffer, 30 min): 4380 ng/mL
Conc 2nd duplicate ([2]; pH 6.0 buffer, 30 min): 4370 ng/mL
Conc Average ([2]; pH 6.0 buffer, 30 min): 4380 ng/mL
Conc 1st duplicate ([2]; pH 6.0 buffer, 1 h): 3580 ng/mL
Conc 2nd duplicate ([2]; pH 6.0 buffer, 1 h): 3560 ng/mL
Conc Average ([2]; pH 6.0 buffer, 1 h): 3570 ng/mL
Conc 1st duplicate ([2]; pH 6.0 buffer, 3 h): 11150 ng/mL
Conc 2nd duplicate ([2]; pH 6.0 buffer, 3 h): 10970 ng/mL
Conc Average ([2]; pH 6.0 buffer, 3 h): 11060 ng/mL
Conc 1st duplicate ([2]; pH 6.0 buffer, 5 h): 1920 ng/mL
Conc 2nd duplicate ([2]; pH 6.0 buffer, 5 h): 1920 ng/mL
Conc Average ([2]; pH 6.0 buffer, 5 h): 1920 ng/mL
Conc 1st duplicate ([2]; pH 6.0 buffer, 24 h): 4020 ng/mL
Conc 2nd duplicate ([2]; pH 6.0 buffer, 24 h): 4030 ng/mL
Conc Average ([2]; pH 6.0 buffer, 24 h): 4020 ng/mL
solubility at 30 min ([2]; phosphate buffer, pH 6.0, room temperature, maximum over 0.5-24 h (Form J and Form III 30 min, Form G after 1 h)): 15.97 ± 0.04 µg/mL (≈ 39.7 µM)
Structure (SMILES): CCC(=O)O[C@]1(C(=O)CO)CC[C@H]2[C@@H]3CCC4=CC(=O)CC[C@]4(C)[C@H]3CC[C@@]21C [Form III, cortexolone 17α-propionate]
